Drawing on patent publication US20230382911A1 (Hoffmann-La Roche Inc., priority 2021, published 2023), this text covers IC50 for 16 compounds.

Broadly, the IC50 is the concentration at which inhibition is half-maximal.

In the assay the target is Recombinant human Mat2a (Homo sapiens (Human), UniProt P31153). Kind of assay: Determination of Mat2A activity: 384 well format absorbance-based Mat2A inhibition assay. In kind it is biochemical. Conditions: 12.5 nM Mat2A, 100 μM ATP and Methionine, 2% DMSO, 120 minutes at RT, Biomol Green, absorbance at 635 nm. The procedure:
Determination of Mat2A Activity
Measurement of Mat2A inhibition is performed in 384 well format absorbance-based assay.
Recombinant human Mat2a (12.5 nM) and serial diluted compounds in DMSO (range of concentrations from 10 μM to […]) or controls (DMSO) are incubated for 15 minutes at room temperature (RT) in assay buffer containing 50 mM HEPES pH 7.5, 50 mM KCl, 50 mM MgCl2, 0.01% Tween 20 and 10 mM DTT. The reaction is initiated by the addition of the combined substrates ATP and Methionine, each at a final concentration of 100 μM. Final assay condition are 12.5 nM Mat2A, 100 μM ATP and Methionine Substrates and 2% DMSO. After 120 minutes of incubation at RT, the reaction is stopped by the addition of Biomol Green. The absorbance signal is measured at λ=635 nm with a multiplate reader (BMG Pherastar reader or equivalent) after 30 min of equilibration at RT.

Sequence of Recombinant human Mat2a (P31153 whole entry): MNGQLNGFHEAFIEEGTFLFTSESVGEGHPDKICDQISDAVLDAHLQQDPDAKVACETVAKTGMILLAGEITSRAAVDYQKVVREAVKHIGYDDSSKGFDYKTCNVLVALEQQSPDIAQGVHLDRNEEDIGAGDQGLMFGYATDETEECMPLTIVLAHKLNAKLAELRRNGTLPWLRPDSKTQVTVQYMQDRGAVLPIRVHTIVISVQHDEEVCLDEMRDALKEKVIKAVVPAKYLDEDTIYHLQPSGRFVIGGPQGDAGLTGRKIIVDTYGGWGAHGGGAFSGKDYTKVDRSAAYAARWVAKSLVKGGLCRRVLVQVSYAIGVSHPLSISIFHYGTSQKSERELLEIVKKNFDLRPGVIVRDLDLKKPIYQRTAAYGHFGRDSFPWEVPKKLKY

With `Cc1ccccc1C(=O)n1nc(N)c2ccc(C3=CCCC3)nc21` [Example 30, [3-amino-6-(cyclopenten-1-yl)pyrazolo[3,4-b]pyridin-1-yl]-(2-methylphenyl)methanone], the IC50 came out at 53 nM. With `COc1ccccc1C(=O)n1nc(N)c2ccc(-c3ccccc3)nc21` [Example 1, (3-amino-6-phenyl-1H-pyrazolo[3,4-b]pyridin-1-yl)(2-methoxyphenyl)methanone] the figure was 92 nM; with `Cc1ocnc1C(=O)n1nc(N)c2ccc(C3CC3)nc21` [Example 62, (3-amino-6-cyclopropyl-1H-pyrazolo[3,4-b]pyridin-1-yl)(5-methyloxazol-4-yl)methanone], 350 nM.

Consider `Cc1ccccc1C(=O)n1nc(N)c2ccc(N3CCCC3)nc21` [Example 5, (3-amino-6-(pyrrolidin-1-yl)-1H-pyrazolo[3,4-b]pyridin-1-yl)(o-tolyl)methanone], for which the IC50 was 94 nM.

For the compound `CCc1ccccc1C(=O)n1nc(N)c2ccc(C3CC3)nc21` [Example 60, (3-amino-6-cyclopropyl-1H-pyrazolo[3,4-b]pyridin-1-yl)(2-ethylphenyl)methanone], the IC50 stood at 37 nM. With `Cc1ccccc1C(=O)n1nc(N)c2ccc(C3CC3)nc21` [Example 20, (3-amino-6-cyclopropylpyrazolo[3,4-b]pyridin-1-yl)-(2-methylphenyl)methanone] the figure was 160 nM; with `COc1ccccc1C(=O)n1nc(N)c2ccc(C3CC3)nc21` [Example 7, (3-amino-6-cyclopropylpyrazolo[3,4-b]pyridin-1-yl)-(2-methoxyphenyl)methanone], 120 nM.

Regarding `COc1c(Cl)cccc1C(=O)n1nc(N)c2ccc(C3CC3)nc21` [Example 71, (3-amino-6-cyclopropyl-1H-pyrazolo[3,4-b]pyridin-1-yl)(3-chloro-2-methoxyphenyl)methanone], the IC50 was determined as 480 nM. `CC1OCCC1C(=O)n1nc(N)c2ccc(C3CC3(F)F)nc21` (stereo not shown) [Example 50, (3-amino-6-(2,2-difluorocyclopropyl)-1H-pyrazolo[3,4-b]pyridin-1-yl)(2-methyltetrahydrofuran-3-yl)methanone]: the IC50 is 160 nM. With `COc1ccccc1C(=O)n1nc(N)c2cc3c(nc21)CC(C)CC3` (stereo not shown) [Example 38, (3-amino-7-methyl-5,6,7,8-tetrahydro-1H-pyrazolo[3,4-b]quinolin-1-yl)(2-methoxyphenyl)methanone] the figure was 120 nM. With `Cc1nscc1C(=O)n1nc(N)c2ccc(C3CC3)nc21` [Example 79, (3-amino-6-cyclopropyl-1H-pyrazolo[3,4-b]pyridin-1-yl)(3-methylisothiazol-4-yl)methanone] the figure was 150 nM; with `COc1ccccc1C(=O)n1nc(N)c2ccc(N3C4CCC3CC4)nc21` [Example 53, [3-amino-6-(7-azabicyclo[2.2.1]heptan-7-yl)pyrazolo[3,4-b]pyridin-1-yl]-(2-methoxyphenyl)methanone], 240 nM; with `COc1ccccc1C(=O)n1nc(N)c2ccc(N3CCCC3)nc21` [Example 3, (3-amino-6-(pyrrolidin-1-yl)-1H-pyrazolo[3,4-b]pyridin-1-yl)(2-methoxyphenyl)methanone], 53 nM. Consider `Cc1ccccc1C(=O)n1nc(N)c2ccc([C@H]3C[C@@H]3C)nc21` (racemic) [Example 33, (3-amino-6-((1RS,2RS)-2-methylcyclopropyl)-1H-pyrazolo[3,4-b]pyridin-1-yl)(o-tolyl)methanone], for which the IC50 is 28 nM.

For the compound `Nc1nn(C(=O)C2CCCCC2)c2nc(C3CC3)ccc12` [Example 56, (3-amino-6-cyclopropyl-1H-pyrazolo[3,4-b]pyridin-1-yl)(cyclohexyl)methanone], the IC50 turned out to be 430 nM. Consider `COc1ccccc1C(=O)n1nc(N)c2ccc(N3CC(F)(F)C3)nc21` [Example 27, (3-amino-6-(3,3-difluoroazetidin-1-yl)-1H-pyrazolo[3,4-b]pyridin-1-yl)(2-methoxyphenyl)methanone], for which the IC50 was 69 nM.
